Test results published in patent publication US8377989B2, “Room temperature stable non-crystalline aspirin and method for the preparation thereof” (priority 2007, dated 2013).

Legend:
[1] = 298K; vitrified by melting and cooling or ball-milling; cited from earlier work
[2] = 100 K (−173° C.) versus ambient conditions; cited from earlier work
[3] = Storage stability of the non-crystalline form at room temperature (appearance, PXRD); type: physicochemical; settings: for time the non-crystalline glass form remained stable: room temperature
Text: Within an hour of the evaporative desolvation process following the laser treatment, the system stabilized with 80 percent or more of the mass of the sample cured to a clear non-crystalline glass rather than a crystalline form.
After the 6 months of storage, the laser treated aspirin was studied by PXRD.
(§1) Subsequent tests with the protocol of Example 2 were repeated with the order of long and short wavelengths reversed, i.e., short wavelength followed by long wavelength cycled sequenced laser treatment. This protocol also produced up to 90 percent yields of room temperature stable non-crystalline glass aspirin, which remained stable at room temperature for over 23 months. The Petri dish containing such a sample of non-crystalline aspirin was placed on edge for a period of about six weeks.

[4] = Flow test: Petri dish with sample placed on edge; type: physicochemical; settings: Example 3; Petri dish on edge for about six weeks
Text: as §1

SMILES: CC(=O)Oc1ccccc1C(=O)O [vitreous aspirin]
- stability against crystallization [1]: did not crystallize for four to five days

SMILES: CC(=O)Oc1ccccc1C(=O)O [Aspirin Form II]
- stability of the polymorphic form [2]: kinetically stable at 100 K (−173° C.), but converts back to Form I at ambient conditions

SMILES: CC(=O)Oc1ccccc1C(=O)O [non-crystalline aspirin, acetylsalicylic acid]
- crystallization on further storage ([3]; Example 2, additional six months of storage after the first 6 months): No crystallization has been observed
- storage period with no change in appearance of the sample ([3]; Example 2, room temperature of about 18° to 22° C., about 30 to 40 percent humidity): over 6 months
- time remained stable at room temperature ([3]; Example 3, short wavelength followed by long wavelength laser treatment): over 23 months
- time the non-crystalline glass form remained stable [3]: stable at room temperature once the solvent had evaporated
- time the non-crystalline glass form remained stable ([3]; listed as glass aspirin): stable for up to about a year at room temperature
- time the non-crystalline glass form remained stable ([3]; listed as non-crystalline glass form): stable at room temperature for at least up to about a year
- time the non-crystalline form remained stable ([3]; temperature of about 20° to 30° C.): stable at a temperature of about 20° to 30 °C for at least about a year
- flowing of the sample [4]: No flowing of the sample was observed
